These results are taken from US20020086835A1, “Use of adenosine deaminase inhibitors to treat systemic inflammatory response syndrome” (priority 2000, published 2002).

Where “and” joins values, the source holds several entries; their conditions need not be identical. Identical values can stand only once. Entries after “also recorded” stand apart in the source; their conditions may differ.

Series [1] relates to adenosine receptors. In words: Regional vascular resistance by radiolabelled microspheres 24 hours after sepsis induction. The settings on record: septic rats. Format: in vivo, rat. The protocol:
Systemic vascular responses were examined 24 hours after induction of sepsis in the presence or absence of adenosine receptor blockade in septic and non-septic rats using radiolabelled microspheres. For these experiments, the surgical procedure involving vascular access was modified to include a catheter in the left ventricle of the heart (via the carotid artery), and a catheter in the tail artery (Intramedic PE-50, Baxter) to permit reference blood withdrawal and blood pressure monitoring. Regional blood flows were determined using radiolabelled microspheres. The microspheres ([…] New England Nuclear, Boston), labeled with one of four isotopes (^46Sc, ^85Sr, ^95Nb, ^141Ce), were mixed in 0.9% normal saline with 0.01 % Tween-80 added to prevent aggregation. The microspheres were adjusted to provide a minimum of 400 microspheres per tissue sample, and represented approximately 100,000-250,000 spheres per injection. The specific Isotopes and their order of injection were randomized in each experiment. with each injection representing a volume of 0.4 ml/injectate. The microspheres were sonicated for a minimum of 30 minutes, and vortexed vigorously for at least 30 seconds prior to injection. A reference withdrawal sample was taken at 0.33 ml/min from the tail artery catheter using a mechanical pump (Harvard Model 22). The reference withdrawal was started 10 seconds prior to injecting the isotopes, and continued for 150 seconds. […] Wet weights were obtained and all tissues were counted in a gamma spectrophotometer (Beckman 9000). Gamma activity in the injectate vials was counted prior to the experiments. Actual injected amounts for each isotope were calculated by subtracting any isotope counts remaining in the vials, syringes, and catheters used for injection. Cardiac output (CO) was determined by dividing the total injectate counts for any given isotope by the counts in the reference sample and multiplying by the fixed withdrawal rate of the reference sample. The results for cardiac output are expressed as ml/min. Tissue counts attributed to each isotope were determined after subtracting the overlap of energy spectra from higher energy isotopes (Compton back-scatter). Individual tissue blood flows were determined by dividing the counts obtained in the tissue by the reference withdrawal counts and multiplying by the reference withdrawal rate. Tissue blood flows were then normalized to wet weight was calculated by adding the individual tissue blood flows of the stomach, small intestine, cecum, colon, pancreas, hepatic artery and spleen, and dividing by the liver weight. Regional tissue vascular resistances were calculated from regional blood flows and arterial blood pressure, according to the equation: […]

Series [2] deals with septic rats. In words: Capillary leakage: examination of peritoneal cavity and bowel of septic rats. Format: in vivo, rat.
Series [3] concerns TNF-α. The series is described as follows: Serum TNF-α by ELISA in rats with chronic peritoneal sepsis (200 mg/kg cecal slurry ip). To be noted: septic rats. Format: in vivo, rat. The protocol:
(§1) Studies were conducted to determine if manipulation of adenosine-mediated events would result in alterations in the TNF-α response in this model. At the time of sepsis induction, rats were treated in one of four ways. One group received only 0.9% normal saline as a vehicle control (No Rx; n=6). […] The third group received the adenosine deaminase inhibitor, erythro-9-(2-hydroxy-3-nonyl)adenine (EHNA; 1 μmole/kg+1 μmole/kg/hr; iv; n=3). A fourth group received the adenosine receptor antagonist 8-sulfophenyltheophylline (SPT; 400 μg/kg/8 hours; n=5).
(§2) Sepsis was induced under pentobarbital anesthesia (50 mg/kg) in each rat by intraperitoneal (ip) injection of 200 mg/kg rat cecal contents mixed as a slurry in 5% dextrose in water (D5W). […] Non-septic controls received an equivalent volume ip injection of D5W. Polyethylene catheters (Intramedic PE-50, Baxter) were inserted into the right internal jugular vein and right carotid artery. The jugular catheter was used for venous access (drug infusions; volume replacement, etc). The carotid catheter was used to obtain arterial blood samples, and to monitor arterial blood pressure and heart rate. The catheters were secured in their respective vessels, tunneled subcutaneously to exit in the interscapular region, and filled with heparinized saline (50 units/ml 0.9% normal saline). Incisions were closed in layers using 3-0 silk. Rats were allowed to recover from anesthetic and provided food and water ad libitum,
Serum and tissue tumor necrosis factor-α (TNF-α) concentrations were determined by enzyme-linked immunosorbant assay. Samples of serum, liver, and spleen were collected, rapidly weighed, and frozen in liquid nitrogen. On the day of assay, tissues are added to labeled tubes containing lysis buffer (volume=10 ml/gram wt. with 1:10 dilution) and kept on ice. The lysis buffer is 20 mM Tris (pH 7.4) containing […] phenylmethylsulfonylflouride (PMSF), […] leupeptin, 0.7 g/ml pepstatin, and 2.0 g/ml aprotinin to inhibit proteases. Samples were immediately homogenized using five 3 see bursts, washing grinding pistol (3×) between samples with phosphate buffered saline. Samples are then centrifuged for 20 min at 2200 RPM, 4° C. The supernatant was removed and used for TNF-α measurements. Briefly, each microplate well contained 50 μl of assay diluent. To each well, 50 μl of standard, control, or serum/homogenate supernatant sample were added and mixed on an orbital plate shaker. Plates were incubated at room temperature for 2 hours. Each well was then aspirated and washed with wash buffer 4 times. After final aspiration of wash buffer, 100 μl of rat TNF-α conjugate was added to each well. Wells were then covered and incubated for 2 hours at room temperature. At the end of the incubation, the aspiration/wash procedure was repeated 4 times, after which 100 μl of stabilized chromogen solution was added to each well. Next, plates were incubated for 45 minutes at room temperature in a dark area. After this final incubation period, 100 μl stopping solution was added to each well. Optical density of each well at […] was determined within 30 minutes using a Biotek Instruments EL312e microtiter plate reader. Concentrations of TNF-α were calculated from the standard curves.
At the time of sepsis induction, rats were treated in one of three ways. One group received only 0.9% normal saline as a vehicle control (VEH, n=6, where n is the number of rats). […] A third group received the adenosine receptor antagonist, 8-sulfophenyltheo-phylline (SPT; 400 μg/kg/8 h; n=5). Serum TNF-α (pg/ml) was determined at 4 and 24 hours after sepsis induction by ELISA.
Male SD rats (350-400 g) were made septic by IP introduction of a 200 mg/kg cecal slurry. […] TNF-α (pg/ml) was determined at 4 and 24 hours after sepsis induction by ELISA.

The test system of series [4] is septic rats. The series is described as follows: Blood pressure and heart rate in septic rats. To be noted: chronic treatment. The protocol: as §1
as §2, with “The catheters were secured in their respective vessels, tunneled subcutaneously to exit in the interscapular region, and filled with heparinized saline (50 units/ml 0.9% normal saline). Incisions were closed in layers using 3-0 silk. Rats were allowed to recover from anesthetic and provided food and water ad libitum,” left out
(§3) At the time of sepsis induction, rats were treated in one of three ways. […] Serum TNF-α (pg/ml) was determined at 4 and 24 hours after sepsis induction by ELISA.

For series [5], the system named is septic rats. The series is described as follows: Survival of septic rats to day 3. Format: in vivo, rat. To be noted: pentostatin 5 mg/kg/12 h; 8-SPT 400 μg/kg/8 h; 3 days post-sepsis. As to the method: as §1
as §2, with “The catheters were secured in their respective vessels, tunneled subcutaneously to exit in the interscapular region, and filled with heparinized saline (50 units/ml 0.9% normal saline). Incisions were closed in layers using 3-0 silk. Rats were allowed to recover from anesthetic and provided food and water ad libitum,” left out
as §3

The target of series [6] is T1, adenosine deaminase (Homo sapiens, UniProt P00813).
T1 sequence (P00813 1-363): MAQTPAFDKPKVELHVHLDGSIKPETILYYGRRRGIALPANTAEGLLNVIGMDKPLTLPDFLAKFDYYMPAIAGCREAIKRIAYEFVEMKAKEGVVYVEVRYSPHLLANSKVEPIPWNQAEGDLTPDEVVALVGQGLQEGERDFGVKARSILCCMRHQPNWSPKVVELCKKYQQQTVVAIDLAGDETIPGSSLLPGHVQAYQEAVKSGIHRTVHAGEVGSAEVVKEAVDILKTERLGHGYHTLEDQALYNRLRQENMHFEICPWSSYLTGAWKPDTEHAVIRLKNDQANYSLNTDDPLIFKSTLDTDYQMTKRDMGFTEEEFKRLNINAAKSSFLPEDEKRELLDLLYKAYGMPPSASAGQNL
The settings on record: FIG. 10 legend; cited from earlier work.

Series [7] deals with T2, xanthine oxidase (Rattus norvegicus, UniProt P22985).
T2 construct: host or cells: isolated perfused rat heart
The settings on record: 10 nM, hypoxic perfused rat hearts; cited from earlier work.

T2 sequence (P22985 whole entry, the tested form may be a part): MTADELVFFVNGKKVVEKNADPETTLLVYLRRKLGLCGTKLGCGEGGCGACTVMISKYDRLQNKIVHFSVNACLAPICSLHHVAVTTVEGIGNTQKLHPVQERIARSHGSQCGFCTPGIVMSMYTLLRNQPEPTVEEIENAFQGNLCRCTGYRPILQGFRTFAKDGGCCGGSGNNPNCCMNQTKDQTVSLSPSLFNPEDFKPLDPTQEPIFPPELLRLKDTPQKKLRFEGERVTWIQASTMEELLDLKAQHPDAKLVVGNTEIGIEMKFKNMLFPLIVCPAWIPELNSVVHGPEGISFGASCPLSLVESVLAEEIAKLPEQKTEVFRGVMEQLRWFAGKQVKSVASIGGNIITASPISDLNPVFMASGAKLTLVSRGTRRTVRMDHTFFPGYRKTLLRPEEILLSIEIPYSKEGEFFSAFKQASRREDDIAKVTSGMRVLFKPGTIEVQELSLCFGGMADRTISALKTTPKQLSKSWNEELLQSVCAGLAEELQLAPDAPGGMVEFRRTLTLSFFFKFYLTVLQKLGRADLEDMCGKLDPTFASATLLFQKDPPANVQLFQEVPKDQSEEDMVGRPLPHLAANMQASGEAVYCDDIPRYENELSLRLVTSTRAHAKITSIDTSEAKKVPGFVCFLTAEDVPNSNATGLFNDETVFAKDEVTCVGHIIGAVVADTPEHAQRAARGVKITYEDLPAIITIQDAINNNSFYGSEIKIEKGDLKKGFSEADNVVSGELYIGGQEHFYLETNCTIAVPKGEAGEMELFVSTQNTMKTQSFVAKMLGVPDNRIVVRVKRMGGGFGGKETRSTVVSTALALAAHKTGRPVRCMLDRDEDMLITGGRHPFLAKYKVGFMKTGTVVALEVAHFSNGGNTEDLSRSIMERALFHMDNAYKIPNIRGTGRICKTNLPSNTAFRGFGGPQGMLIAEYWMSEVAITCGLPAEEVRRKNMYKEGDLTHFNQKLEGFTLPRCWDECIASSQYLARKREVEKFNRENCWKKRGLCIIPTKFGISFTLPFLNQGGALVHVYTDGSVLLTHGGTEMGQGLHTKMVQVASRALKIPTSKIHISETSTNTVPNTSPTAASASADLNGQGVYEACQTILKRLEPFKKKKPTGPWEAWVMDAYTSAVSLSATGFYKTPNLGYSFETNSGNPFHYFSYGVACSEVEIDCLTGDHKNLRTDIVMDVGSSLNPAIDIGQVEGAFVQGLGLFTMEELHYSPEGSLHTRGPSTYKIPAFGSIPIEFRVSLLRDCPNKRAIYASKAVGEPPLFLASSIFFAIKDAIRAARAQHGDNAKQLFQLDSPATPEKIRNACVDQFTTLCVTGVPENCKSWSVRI

Turning to 8-sulfophenyltheophylline [8-SPT], the “Brain (cerebral) vascular resistance” value in series [1] is recorded as “exception of changes in cerebral vascular resistance”. In series [2], the Capillary leakage result is listed as “exacerbation of capillary leakage” and the Small bowel hemorrhage result is listed as “small bowel hemorrhaging was evident”. Moreover, in series [2] (untreated 2-3 ml), the “Volume of fluid in the peritoneal cavity” value lay in the range of 3 to 5 mL. The “Effect on serum TNF-α response to sepsis at 4 hours” value in series [3] (4 hours, versus saline-treated septic group) was “not at 4 hours”. The “Effect on serum TNF-α response to sepsis at 24 hours” value in series [3] (24 hours, versus saline-treated septic group) is reported as “amplified the response”. For the same compound, the “Serum TNF-α at 4 hours after sepsis induction” value in series [3] (treated at time of sepsis induction, 4 hours) worked out at 1167 ± 428 pg/mL. Moreover, in series [3] (treated at time of sepsis induction, 24 hours), the “Serum TNF-α at 24 hours after sepsis induction” value turned out to be 2479 ± 875 pg/mL. In addition, the “Blood pressures or heart rates versus saline-treated septic rats” value in series [4] was “neither the adenosine deaminase inhibition nor the 8-SPT groups were blood pressures or heart rates significantly different; also recorded: neither the groups treated with pentostatin nor the groups treated with 8-SPT were blood pressures or heart rates significantly different”. The “Septic rats surviving to day 3” value in series [5] is 2 of the 5 and 1 of 5.
In the case of `OCC1OC(n2cnc3c2N=CNCC3O)C(F)C1O` (stereo not shown) [2′-deoxy-2′-fluorocoformycin], in series [6], the “Enzyme-inhibitory activity against adenosine deaminase” value is recorded as “high enzyme-inhibitory activities”.
For the compound `OC[C@H]1O[C@@H](n2cnc3c2N=CNC[C@@H]3O)[C@H](F)[C@@H]1O` [2′-deoxy-8-epi-2′-fluorocoformycin], in series [6], the “Enzyme-inhibitory activity against adenosine deaminase” value is listed as “high enzyme-inhibitory activities”.
Consider `Cn1c(=O)c2[nH]c(-c3ccccc3)nc2n(C)c1=O` [8-PTH, 8-phenyltheophylline], for which, in series [1], the “Brain (cerebral) vascular resistance” value is reported as “caused increases”, the “Skeletal muscle vascular resistance” value was “caused increases” and the “Total hepato-splanchnic vascular resistance” value is reported as “caused increases”.
On to `Oc1ncnc2[nH]ncc12` [Allopurinol], for which, in series [7], the Uric acid production entry is given as “below detectable levels”.
